Results from ChEMBL document CHEMBL3639005, “SGLT-2 inhibitors, methods of making them, and uses thereof” (2013).

Experiments:
[1] = biological target: T1, Sodium/glucose cotransporter 1 (Homo sapiens, UniProt P13866); test: (§1) In Vitro Assay: The inhibitory activity of the compounds of this invention against the SGLT-1 or SGLT-2 transporters.
T1 sequence (P13866 whole entry): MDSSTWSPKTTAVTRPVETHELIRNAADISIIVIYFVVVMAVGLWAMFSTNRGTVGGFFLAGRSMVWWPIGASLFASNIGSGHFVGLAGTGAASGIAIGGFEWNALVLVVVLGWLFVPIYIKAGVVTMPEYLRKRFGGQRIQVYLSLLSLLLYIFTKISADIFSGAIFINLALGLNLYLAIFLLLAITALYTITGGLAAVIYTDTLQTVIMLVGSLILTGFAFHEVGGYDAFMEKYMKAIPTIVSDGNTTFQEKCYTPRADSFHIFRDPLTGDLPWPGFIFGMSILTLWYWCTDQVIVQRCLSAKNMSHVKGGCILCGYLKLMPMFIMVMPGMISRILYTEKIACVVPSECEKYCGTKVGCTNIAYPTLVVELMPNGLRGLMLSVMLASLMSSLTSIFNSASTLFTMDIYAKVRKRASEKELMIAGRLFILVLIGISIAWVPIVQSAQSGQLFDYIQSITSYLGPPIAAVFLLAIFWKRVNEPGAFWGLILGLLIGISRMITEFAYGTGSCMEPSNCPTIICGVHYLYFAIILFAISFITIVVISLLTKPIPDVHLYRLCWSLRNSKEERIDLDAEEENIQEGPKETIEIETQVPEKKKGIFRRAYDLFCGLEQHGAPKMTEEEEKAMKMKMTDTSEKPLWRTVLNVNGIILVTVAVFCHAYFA

[2] = biological target: T2, Sodium/glucose cotransporter 2 (Homo sapiens, UniProt P31639); test: as §1
T2 sequence (P31639 whole entry): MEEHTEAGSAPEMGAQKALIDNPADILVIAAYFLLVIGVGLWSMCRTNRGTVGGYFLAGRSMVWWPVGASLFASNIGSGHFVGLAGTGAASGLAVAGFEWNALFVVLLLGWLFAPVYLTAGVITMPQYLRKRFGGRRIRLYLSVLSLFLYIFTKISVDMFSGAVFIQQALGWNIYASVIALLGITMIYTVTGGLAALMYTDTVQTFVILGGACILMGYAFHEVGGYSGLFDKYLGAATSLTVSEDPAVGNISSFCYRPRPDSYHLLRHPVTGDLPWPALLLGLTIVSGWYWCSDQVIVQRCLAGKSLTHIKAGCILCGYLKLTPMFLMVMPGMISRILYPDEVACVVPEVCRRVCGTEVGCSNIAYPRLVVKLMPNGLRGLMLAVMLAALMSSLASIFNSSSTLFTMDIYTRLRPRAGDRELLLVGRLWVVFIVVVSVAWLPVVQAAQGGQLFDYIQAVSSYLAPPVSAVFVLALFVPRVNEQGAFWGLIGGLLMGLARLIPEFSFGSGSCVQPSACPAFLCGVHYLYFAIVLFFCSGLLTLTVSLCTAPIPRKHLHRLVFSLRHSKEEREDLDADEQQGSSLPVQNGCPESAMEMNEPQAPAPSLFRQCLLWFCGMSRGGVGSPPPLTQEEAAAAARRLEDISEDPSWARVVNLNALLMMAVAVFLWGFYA

| SMILES | IC50 [1] [nM] | IC50 [2] [nM] |
| --- | --- | --- |
| O=c1n(Cc2cc([C@@H]3O[C@H](CO)[C@@H](O)[C@H](O)[C@H]3O)ccc2Cl)nc2cc(Cl)ccn12 | > 90000 | 91 |
| N#CC1(c2ccc3nn(Cc4cc([C@@H]5O[C@H](CO)[C@@H](O)[C@H](O)[C@H]5O)ccc4Cl)c(=O)n3c2)CC1 | > 90000 | 223 |
